Laboratory results published in patent US10428043B2, “Green oxidation catalytic system” (TRUSTEES OF BOSTON UNIVERSITY, priority 2014, dated 2019).
Values joined by “and” are separate entries in the source; they are usually repeats but may differ in a detail not shown here. Identical values can stand only once. Like-named read-outs stand apart in the source and are kept apart here.

Tests used:
[1] = vs. NHE, quasi-reversible; Thesis of Tarves 2012; cited from earlier work
[2] = Room temperature O2 reactivity of ferrous complexes followed by UV/vis
Method: The solution was transferred to an anaerobic UV/vis cell and sealed. An initial spectrum was obtained of the ferrous complex, and then the solution was exposed to the air. Spectra were recorded every minute for the first two minutes and then every 5-30 minutes after that for seven hours. The absorbance was monitored at 350 nm to follow formation of the oxidized complex.
This solution was then transferred to an anaerobic UV/vis cell and sealed. An initial spectrum was obtained of the ferrous complex, and then the solution was exposed to the air. Spectra were collected every minute for the first 30 minutes and then every 5-20 minutes after that for 2 hours. The absorbance was monitored at 315 nm to follow formation of the oxidized complex.

[3] = Catalytic oxidation of methanol to formaldehyde with α-KG and O2 (Nash assay)
[4] = Low-temperature stopped-flow kinetics of adduct complexes with dioxygen; conditions: −85° C.
Method: Stopped-flow Spectroscopy and Data analysis.
Kinetic studies of [Fe^II(N2O1)(α-KG)(CH3OH)]^− and [Fe^II(N2O1)(p-X-BF)(CH3OH)]^− adduct complexes with dioxygen. Low-temperature stopped flow studies of this reaction were performed.
Order dependence analysis.
The kinetic model was built by starting from simple two- and three-exponential processes.
Stoichiometry of the equations for the proposed model in FIG. 29: […]

[5] = Cyclic voltammetry, redox potentials; type: physicochemical
Text: All reagents and solvents used were purchased from commercial sources and used as received unless otherwise noted. Prior to use, methanol (Pharmco-Aaper) was distilled over magnesium metal, dimethyl sulfoxide (Fisher Scientific) was distilled over calcium hydride, triethylamine was distilled over sodium metal and unstabilized dichloromethane (Fisher Scientific) was distilled over calcium hydride. Ferrocene was purified by sublimation for use as a reference for electrochemical analyses. All manipulations involving ferrous complexes were carried out in an inert atmosphere glovebox (M. Braun, Stratham, N.H.) with distilled and thoroughly degassed solvents. UV/Vis spectra were collected using a Hewlett Packard Spectrometer (8453). IR spectra were collected using a Thermo Nicolet AVATAR 330-FT-IR. Cyclic voltammetry experiments were performed using a Princeton Applied Research model 273 potentiostat with a glassy carbon working electrode, a silver wire reference electrode and a platinum wire counter electrode. Electron Paramagnetic Resonance (EPR) spectra were collected on a Bruker ESP-300E spectrometer operating at 9.460 GHz. NMR spectra were recorded at 25° C. using a Varian spectrometer operating at 400 MHz with all chemical shifts referenced to SiMe4. Iron concentrations were determined using a Varian AA240Z Atomic Absorption Spectrometer.
Cyclic voltammetry was performed inside an inert atmosphere (N2) box, with degassed DMSO as the solvent and tetra-N-butylammonium hexafluorophosphate as the supporting electrolyte (0.2M). The ferrocenium/ferrocene couple was used as an internal reference; reduction potential values were corrected by assigning the ferrocenium/ferrocene couple to 0.64 V versus NHE (Zanello, P. Inorganic Electrochemistry; The Royal Society of Chemistry: Cambridge, 2003). Chloride titration experiments were performed by collecting CV data after the addition of one and two 50 μL aliquots of 204 mM [NEt4][Cl] to 3.0 mL of 3.4 mM [Fe^II(N2O1py)(Cl)2]^− (concentration determined using flame atomic absorption spectroscopy) and correcting the potential with reference to the ferrocenium/ferrocene couple.
It should be noted that these redox potentials were determined in the absence of excess halide, and further CV studies will be performed in the presence of excess halide for all derivatives of the N2O1py system.

Solubility = type: physicochemical
[6] = [24] 1.0 mM, O2 5 mM, benzoate 3.1 mM
[7] = complex 0.94-1.1 mM, O2 5 mM, methanol
[8] = calculated from redox potentials for the one-electron transfer between iron and dioxygen

SMILES: CN(C)CCN(C)CC(=O)[O-].CO.O=C([O-])C(=O)c1ccccc1.[Fe+2] [compound 24, [Fe^II(N2O1)(p-H-BF)]]
- E1/2 [1]: 60 mV
- rate of room temperature reactivity with O2 (time) [2]: ~200 min
- TON predicted from the line of best fit in FIG. 2 for the α-KG adduct complex ([3]; iron complex 0.47 mM): 0.9
- TON predicted from the line of best fit in FIG. 2 for the α-KG adduct complex ([3]; iron complex 0.94 mM): 0.6
- TON predicted from the line of best fit in FIG. 2 for the α-KG adduct complex ([3]; iron complex 1.34 mM): 0.3
- k′1 ([4]; [24] 0.47 mM, O2 5 mM): 8.5 ± 0.2 s⁻¹
- k′2 ([4]; [24] 0.47 mM, O2 5 mM): 170 ± 8 M⁻¹ s⁻¹
- k′2obs ([4]; [24] 0.47 mM, O2 5 mM): 0.9 ± 0.04 s⁻¹
- k′3 ([4]; [24] 0.47 mM, O2 5 mM): 21 ± 0.06 s⁻¹
- k′4 ([4]; [24] 0.47 mM, O2 5 mM): 0.2 ± 0.01 s⁻¹
- k′2obs ([4]; [24] 0.94 mM, O2 5 mM): 0.13 ± 0.02 s⁻¹
- k′1 [4, 6]: 0.04 ± 0.01 s⁻¹
- k′2 [4, 6]: 2900 ± 500 M⁻¹ s⁻¹
- k′3 [4, 6]: 0.25 ± 0.05 s⁻¹
- k′4obs [4, 6]: 1.1 ± 0.2 s⁻¹
- k′1 ([4]; [24] 1.34 mM, O2 2.5 mM): 7 ± 1.2 s⁻¹
- k′2obs ([4]; [24] 1.34 mM, O2 2.5 mM): 0.2 ± 0.1 s⁻¹
- k′3 ([4]; [24] 1.34 mM, O2 2.5 mM): 14 ± 6 s⁻¹
- k′4 ([4]; [24] 1.34 mM, O2 2.5 mM): 0.2 ± 0.03 s⁻¹
- k′1 ([4]; [24] 1.34 mM, O2 3.5 mM): 9 ± 1.1 s⁻¹
- k′2obs ([4]; [24] 1.34 mM, O2 3.5 mM): 0.5 ± 0.2 s⁻¹
- k′3 ([4]; [24] 1.34 mM, O2 3.5 mM): 16 ± 4 s⁻¹
- k′4 ([4]; [24] 1.34 mM, O2 3.5 mM): 0.3 ± 0.09 s⁻¹
- k′1 ([4]; [24] 1.34 mM, O2 5 mM): 6.1 ± 0.9 s⁻¹ and 8 ± 0.9 s⁻¹
- k′2 ([4]; [24] 1.34 mM, O2 5 mM): 150 ± 5 M⁻¹ s⁻¹
- k′3 ([4]; [24] 1.34 mM, O2 5 mM): 20 ± 1.1 s⁻¹ and 21 ± 5 s⁻¹
- k′1 [4, 7]: 7.8 ± 1.0 s⁻¹
- k′3 [4, 7]: 20 ± 0.9 s⁻¹
- k′4 (k′4obs) [4, 7]: 0.4 ± 0.03 s⁻¹

SMILES: CN(CC(=O)[O-])Cc1ccccn1.[Cl-].[Cl-].[Fe+2] [[Fe^II(N2O1py)(Cl)2]^−, [PSH][Fe^II(N2O1py)(Cl)2]]
- redox potential [5]: 188 mV
- E1/2 ([5]; DMSO, glassy carbon working electrode, absence of excess halide): 216 mV
- Keq [5, 8]: 1.7 × 10^−9
- ΔG° [5, 8]: 50 kJ
- ΔE ([5]; no added halide): 96 mV
- E1/2 ([5]; no added halide, in mV): +216
- time for formation of the diferric oxo-bridged product on reaction with O2 ([2]; methanol): > 7 h
- solubility properties compared with the first generation catalyst (Solubility): very similar solubility properties
